Experimental findings from patent US10189843B2, “Fused pyrazole derivative having autotaxin inhibitory activity” (The University of Tokyo, priority 2014, dated 2019) are described below.

The assay concerns the target T1, Human autotaxin enzyme (Homo sapiens, UniProt Q13822).
T1 construct: purchased R&D System
Kind of assay: Evaluation of autotaxin inhibitor, Method C (18:0 Lyso PC substrate, choline assay, Resorufin fluorescence). In kind it is biochemical. Conditions: Method C (Test Example 3), read-out: Inhibitory activity (enzyme inhibitory activity, IC50). As for the experimental part: Test Example 3 (Method C) Evaluation of Autotaxin Inhibitor
Solution B containing 100 mM Tris-HCl buffer (pH7.5), 150 mM NaCl, 5 mM MgCl2, and 0.05% Triton X-100 was prepared. Human autotaxin enzyme (purchased from R&D System) was diluted with Solution B, and 2.5 μl of which was added to a solution of test compound in DMSO. Furthermore, 2.5 μl of 200 μM 18:0 Lyso PC (purchased from Avanti Polar Lipids) in Solution B was added and allowed to react at room temperature for 2 hours. After completion of the reaction, 15 μl of the coline assay reagent (100 mM Tris-HCl buffer (pH7.5), 5 mM MgCl2, 77 μg/ml coline oxidase, 10 μg/ml peroxydase, 25 μM 10-acetyl-3,7-dihydroxyphenoxazine, and excess autotaxin inhibitor) was added and allowed to react at room temperature for 20 minutes. The fluorescent dye Resorufin, which was produced by the reaction, was detected. The fluorescence was detected using ViewLux (PerkinElmer, Inc.) with a excitation wavelength of 531 nm and a fluorescence wavelength of 598 nm.
The percent inhibition of the test compound was calculated by assuming the sample with no test compound as 0% inhibition and the sample with no enzyme as 100% inhibition, and the percent inhibitions at different concentrations of the test compound were plotted to obtain a concentration-dependent curve.

As usually defined, the IC50 is the point on the concentration scale where inhibition reaches its midpoint.

On to `CCCCCC1CN(CC(=O)N2CCCC2CCCc2ccccc2)C(=O)c2cc(-c3ccc(Cl)cc3)nn21` (centres unmarked) [Compound I-0078], for which the IC50 was at least 1 µM.

As for `CCOC(=O)CN1C[C@H](C)n2nc(-c3ccc(Cl)cc3)cc2C1=O` [Compound I-0019], the IC50 is at least 1 µM.

In the case of `CCCCCC1CN(CC(=O)N2CCCCC2)C(=O)c2cc(-c3ccc(Cl)cc3)nn21` (centres unmarked) [Compound I-0083], the IC50 was in the range of 0.1 to 1 µM.

For the compound `CCCCC1CN(CC(=O)OCC)C(=O)c2cc(-c3ccc(Cl)cc3)nn21` (centres unmarked) [Compound I-0294], the IC50 was in the range of 0.01 to 0.1 µM.

On to `CCCCCC1CN(CC(=O)NC(CCC)C(=O)O)C(=O)c2cc(-c3ccc(Cl)cc3)nn21` (centres unmarked) [Compound I-0062], for which the IC50 is under 0.01 µM.

For `CCCCCC1CN(CC(=O)OCC)C(=O)c2cc(-c3ccc(Cl)cc3)nn21` (centres unmarked) [Compound I-0002], the half-maximal inhibitory concentration (IC50) lay within 0.01 to 0.1 µM.

Take `CCOCC1CNC(=O)c2cc(-c3ccc(Cl)cc3)nn21` (centres unmarked) [Compound I-0198]: the IC50 is at least 1 µM.

On to `CCCCCC1CN(CC(=O)N2CCCC2C(=O)O)C(=O)c2cc(-c3ccc(Cl)cc3)nn21` (centres unmarked) [Compound I-0065], for which the IC50 was 0.01 to 0.1 µM.

On to `CCCCCC1CN(CC(=O)N2CCCCC2c2ccccc2)C(=O)c2cc(-c3ccc(Cl)cc3)nn21` (centres unmarked) [Compound I-0105], for which the IC50 is 0.1 to 1 µM.

Consider `CCCCC1CN(CC(=O)N2CCC[C@@H]2C)C(=O)c2cc(-c3ccc(Cl)cc3)nn21` (some centres unmarked) [Compound I-0246], for which the IC50 lay in the range of 0.01 to 0.1 µM.

As to `CCCCC1CN(Cc2ccc(C#N)cc2)C(=O)c2cc(-c3ccc(OC)cc3)nn21` (centres unmarked) [Compound I-0205], the IC50 lay in the range of 0.1 to 1 µM.

With `COC(=O)Nc1cc(Cl)ccc1-c1cc2n(n1)[C@@H](C)CN(CC(=O)N(C)CC#N)C2=O` [Compound I-0363], the IC50 lay within 0.01 to 0.1 µM.

For the compound `C[C@H]1CN(Cc2ccc(C#N)cc2)C(=O)c2cc(-c3ccc(Cl)cc3CC#N)nn21` [Compound I-0300], the IC50 is at least 1 µM.

With `CCCCCC1CN(CC(=O)N2CCC(O)CC2)C(=O)c2cc(-c3ccc(Cl)cc3)nn21` (centres unmarked) [Compound I-0094], the IC50 lay within 0.01 to 0.1 µM.

With `CCCCCC1CN(Cc2cccc(CC(=O)OCC)c2)C(=O)c2cc(-c3ccc(Cl)cc3)nn21` (centres unmarked) [Compound I-0125], the IC50 was at least 1 µM.

As for `C[C@H]1CN(Cc2ccc(C#N)cc2)C(=O)c2cc(-c3ccc(Cl)cc3)nn21` [Compound I-0165], the IC50 was at least 1 µM.

On to `CCCCC1CN(Cc2ccc(C#N)cc2)C(=O)c2cc(-c3ccc(OC(F)(F)F)cc3)nn21` (centres unmarked) [Compound I-0194], for which the half-maximal inhibitory concentration (IC50) fell in the range of 0.1 to 1 µM.

For the compound `CCCCCC1CN(CC(=O)Nc2cccnc2)C(=O)c2cc(-c3ccc(Cl)cc3)nn21` (centres unmarked) [Compound I-0086], the half-maximal inhibitory concentration (IC50) was 0.1 to 1 µM.

In the case of `CCCCCC1CN(CC(=O)NC2CCC(C(=O)O)CC2)C(=O)c2cc(-c3ccc(Cl)cc3)nn21` (centres unmarked) [Compound I-0060], the 50% inhibitory concentration (IC50) lay in the range of 0.1 to 1 µM.

`CCOC(=O)CN1C[C@H](c2ccccc2)n2nc(-c3ccc(Cl)cc3)cc2C1=O` [Compound I-0021]: the IC50 was at least 1 µM.

As for `CC(=O)Nc1cc(OC(F)(F)F)ccc1-c1cc2n(n1)[C@@H](C)CN(C[C@H]1CNC(=O)O1)C2=O` [Compound I-0339], the IC50 was under 0.01 µM.

Regarding `CCCCCC1CN(CC(=O)N2CCNC(=O)C2)C(=O)c2cc(-c3ccc(Cl)cc3)nn21` (centres unmarked) [Compound I-0037], the IC50 is 0.01 to 0.1 µM.

In the case of `CCCCC1CN(CC(=O)NCCC#N)C(=O)c2cc(-c3ccc(Cl)cc3)nn21` (centres unmarked) [Compound I-0230], the IC50 lay within 0.01 to 0.1 µM.

Take `CCCCCC1CN(CC(=O)N2CCC(c3ccccc3)C2)C(=O)c2cc(-c3ccc(Cl)cc3)nn21` (centres unmarked) [Compound I-0110]: the half-inhibitory concentration (IC50) lay in the range of 0.1 to 1 µM.

On to `CCCCCC1CN(c2ccc(C(=O)N(C)C)cc2)C(=O)c2cc(-c3ccc(Cl)cc3)nn21` (centres unmarked) [Compound I-0310], for which the IC50 was at least 1 µM.

Regarding `CCCCC1CN(CC(=O)N(CC#N)CC#N)C(=O)c2cc(-c3ccc(Cl)cc3)nn21` (centres unmarked) [Compound I-0211], the IC50 was in the range of 0.01 to 0.1 µM.

With `CCCCC1CN(Cc2ccc(C#N)cc2)C(=O)c2cc(-c3ccc(S(F)(F)(F)(F)F)cc3)nn21` (centres unmarked) [Compound I-0372], the IC50 was in the range of 0.1 to 1 µM.

On to `C[C@H]1CN(CC(=O)N(C)CC#N)C(=O)c2cc(-c3ccc(Cl)cc3NC(=O)C3CC3)nn21` [Compound I-0365], for which the IC50 lay in the range of 0.01 to 0.1 µM.

On to `CCCCCC1CN(Cc2ccccc2C#N)C(=O)c2cc(-c3ccc(Cl)cc3)nn21` (centres unmarked) [Compound I-0129], for which the IC50 is at least 1 µM.

Turning to `C[C@H]1CN(CC(=O)NC(Cc2ccccc2)C(=O)O)C(=O)c2cc(-c3ccc(Cl)cc3)nn21` (some centres unmarked) [Compound I-0160], the IC50 lay within 0.01 to 0.1 µM.

As for `CCCCCC1CN(CC(=O)N2CCC(c3ccccc3)CC2)C(=O)c2cc(-c3ccc(Cl)cc3)nn21` (centres unmarked) [Compound I-0036], the half-inhibitory concentration (IC50) fell in the range of 0.01 to 0.1 µM.

In the case of `CCCCCC1CN(CC(=O)NCC(=O)O)C(=O)c2cc(-c3ccc(Cl)cc3)nn21` (centres unmarked) [Compound I-0059], the half-inhibitory concentration (IC50) is 0.01 to 0.1 µM.

For the compound `CCCCCC1CN(CC(=O)NCCCCCCC(=O)O)C(=O)c2cc(-c3ccc(Cl)cc3)nn21` (centres unmarked) [Compound I-0057], the IC50 fell in the range of 0.1 to 1 µM.

With `C[C@H]1CN(Cc2ccc(C(N)=O)cc2)C(=O)c2cc(-c3ccc(Cl)cc3)nn21` [Compound I-0169], the IC50 is at least 1 µM.

Turning to `CCCCCC1CN(CC(=O)O)C(=O)c2cc(-c3ccc(Cl)cc3)nn21` (centres unmarked) [Compound I-0003], the IC50 was at least 1 µM.

In the case of `CCCCC1CN(Cc2ccc(C#N)cc2)C(=O)c2cc(-c3ccc(OC)c(CO)c3)nn21` (centres unmarked) [Compound I-0206], the IC50 is at least 1 µM.

In the case of `CCCCC1CN(CC(=O)N(C)CC#N)C(=O)c2cc(-c3ccc(Cl)cc3)nn21` (centres unmarked) [Compound I-0208], the half-maximal inhibitory concentration (IC50) is 0.01 to 0.1 µM.

On to `CCCCC1CN(CCOC)C(=O)c2cc(-c3ccc(Cl)cc3)nn21` (centres unmarked) [Compound I-0271], for which the 50% inhibitory concentration (IC50) was in the range of 0.1 to 1 µM.

In the case of `N#CC1(NC(=O)CN2CC(COCC(F)(F)F)n3nc(-c4ccc(Cl)cc4)cc3C2=O)CC1` (centres unmarked) [Compound I-0314], the IC50 lay in the range of 0.1 to 1 µM.

Consider `CCOC(=O)CN1C[C@@H](C)n2nc(-c3ccc(Cl)cc3)cc2C1=O` [Compound I-0020], for which the IC50 is at least 1 µM.

For the compound `CCOC(=O)CN1CC(COCc2ccccc2)n2nc(-c3ccc(Cl)cc3)cc2C1=O` (centres unmarked) [Compound I-0026], the IC50 is at least 1 µM.

`CCCCCC1CN(CC(=O)N2CCC(Cc3ccccc3)C2)C(=O)c2cc(-c3ccc(Cl)cc3)nn21` (centres unmarked) [Compound I-0032]: the IC50 is 0.1 to 1 µM.

For the compound `CCCCCC1CN(Cc2cc(C)cc(C(=O)O)c2)C(=O)c2cc(-c3ccc(Cl)cc3)nn21` (centres unmarked) [Compound I-0122], the IC50 was in the range of 0.01 to 0.1 µM.

Regarding `COCC(=O)Nc1cc(C#N)ccc1-c1cc2n(n1)[C@@H](C)CN(CC(=O)N(C)CCC#N)C2=O` [Compound I-0351], the IC50 was under 0.01 µM.

As for `CCCCCC1CN(CC(=O)N2CCCC(C)C2)C(=O)c2cc(-c3ccc(Cl)cc3)nn21` (centres unmarked) [Compound I-0115], the IC50 lay within 0.1 to 1 µM.

As to `CCCCC1CN(C2CCN(CC#N)C2=O)C(=O)c2cc(-c3ccc(Cl)cc3)nn21` (centres unmarked) [Compound I-0292], the half-inhibitory concentration (IC50) was 0.01 to 0.1 µM.

Turning to `C[C@H]1CN(CC(=O)N(C)CCC#N)C(=O)c2cc(-c3ccc(C#N)cc3NC(=O)C(F)(F)F)nn21` [Compound I-0354], the IC50 is under 0.01 µM.

For `C[C@H]1CN(CC(=O)NCC(=O)O)C(=O)c2cc(-c3ccc(Cl)cc3)nn21` [Compound I-0162], the IC50 was at least 1 µM.

Regarding `CCCCCC1CN(Cc2cc(C)cc(C(=O)OC)c2)C(=O)c2cc(-c3ccc(Cl)cc3)nn21` (centres unmarked) [Compound I-0126], the IC50 was at least 1 µM.

With `CCCCCC1CN(CC(=O)N2CCCC(c3ccccc3)C2)C(=O)c2cc(-c3ccc(Cl)cc3)nn21` (centres unmarked) [Compound I-0106], the IC50 lay within 0.1 to 1 µM.

As for `CC(=O)Nc1cc(C#N)ccc1-c1cc2n(n1)[C@@H](C)CN(CC(=O)N(C)CCC#N)C2=O` [Compound I-0341], the half-maximal inhibitory concentration (IC50) was 0.01 to 0.1 µM.

For the compound `C[C@H]1CN(CC(=O)N(C)CC#N)C(=O)c2cc(-c3ccc(C#N)cc3NC(=O)C3CC3)nn21` [Compound I-0364], the IC50 lay in the range of 0.01 to 0.1 µM.

In the case of `CCOCC1CN(Cc2cccc(C(=O)O)c2)C(=O)c2cc(-c3ccc(Cl)cc3)nn21` (centres unmarked) [Compound I-0175], the IC50 lay within 0.01 to 0.1 µM.

As for `CCCCCC1CN(Cc2ccc(NC(C)=O)cc2)C(=O)c2cc(-c3ccc(Cl)cc3)nn21` (centres unmarked) [Compound I-0133], the half-inhibitory concentration (IC50) is at least 1 µM.

As for `CC(=O)Nc1cc(Cl)cnc1-c1cc2n(n1)[C@@H](C)CN(Cc1ccc(C#N)cc1)C2=O` [Compound I-0337], the IC50 was 0.01 to 0.1 µM.

As to `CC(=O)Nc1cc(C#N)cc(CO)c1-c1cc2n(n1)[C@@H](C)CN(Cc1ccc(C#N)cc1)C2=O` [Compound I-0348], the IC50 lay in the range of 0.01 to 0.1 µM.

As to `CCCCC1CN(CC(=O)N2CCN(C(N)=O)CC2)C(=O)c2cc(-c3ccc(Cl)cc3)nn21` (centres unmarked) [Compound I-0217], the concentration for half-maximal inhibition (IC50) is 0.1 to 1 µM.

On to `CCCCC1CN(CCN2CCOCC2)C(=O)c2cc(-c3ccc(Cl)cc3)nn21` (centres unmarked) [Compound I-0273], for which the IC50 fell in the range of 0.1 to 1 µM.

For the compound `CCCCCC1CN(Cc2cncc(C(=O)O)c2)C(=O)c2cc(-c3ccc(Cl)cc3)nn21` (centres unmarked) [Compound I-0185], the IC50 lay in the range of 0.01 to 0.1 µM.

Take `CCCCCC1CN(c2cccc(OCC(=O)O)c2)C(=O)c2cc(-c3ccc(Cl)cc3)nn21` (centres unmarked) [Compound I-0203]: the IC50 is at least 1 µM.

For the compound `CCCCCC1CN(CC(=O)NC[C@H]2CC[C@H](C(=O)O)CC2)C(=O)c2cc(-c3ccc(Cl)cc3)nn21` (some centres unmarked) [Compound I-0054], the IC50 was in the range of 0.1 to 1 µM.

Consider `CC(C)OCC1CN(Cc2ccc(C#N)cc2)C(=O)c2cc(-c3ccc(Cl)cc3)nn21` (centres unmarked) [Compound I-0193], for which the IC50 fell in the range of 0.1 to 1 µM.
